Consider three molecules from patent publication EP0394122A2, “Use of tetracyclines to manufacture a medicament for the treatment and prevention of AIDS” (priority 1989, dated 1990).

The test system of one data set is virus HIV (LAV-1-BRU). As to the kind of experiment: Protection against the cytopathogenic effect of HIV in infected CEM clone 13 cells (MTT viability). It counts as cell-based. The following applies: day 7. The method, then: (§1) Le test est réalisé sur la lignée lymphoblastoïde CEM clone 13. Dans une microplaque de 96 puits on dépose 25 µl/puits d'une solution de produit à tester ou de tampon phosphate isotonique (TPI) dans le cas des contrôles. Les produits sont étudiés à différentes concentrations (souvent 8), à raison de 4 puits par concentration. On ajoute alors 125 µl d'une suspension de cellules CEM dans le milieu RPMI contenant 10 % de sérum de veau foetal, 40 U/ml de pénicilline, 40 µg/ml de streptomycine et 5 µg/ml de polybrène (3500 cellules par puits) et les microplaques sont incubées une heure à 37°C, sous une atmosphère contenant 5 % de gaz carbonique. Pour chaque concentration, l'essai est partagé en 2 parties : une partie sur cellules infectées, pour la détermination de l'activité antivirale et l'autre partie sur cellules non infectées, pour déterminer la cytotoxicité des produits. On infecte alors la première série avec HIV (100 µl par puit d'une suspension de virus LAV-1-BRU contenant 200-300 TCID50) tandis que l'autre série reçoit 100 µl de milieu RPMI tel que défini précédemment. Au bout de 7 jours d'incubation, 175 µl de surnageant sont prélevés et rejetés. La viabilité cellulaire est déterminée selon une modification de la technique décrite par R. Pauwels et coll., J. Virol. Meth., 20, 309-321 (1988).
(§2) Les puits, contenant encore les cellules (infectées ou non infectées), reçoivent 10 µl d'une solution de MTT (méthylthiazoletétrazolium) à 5 mg/ml dans du tampon phosphate isotonique. Pendant une période d'incubation de 4 heures, le MTT est converti en un sel de formazan (bleu) à l'intérieur des cellules vivantes et proportionnellement à leur nombre, alors que rien n'apparaît dans les puits ne contenant plus que des cellules mortes. On ajoute alors 120 µl d'isopropanol (contenant 0,04 mole/l d'acide chlorhydrique) et les microplaques sont agitées jusqu'à la solubilisation du bleu de formazan. L'absorption à 540 nm est lue avec un lecteur automatique de réactions ELISA en microplaques.
(§3) Pour les essais de plus longue durée, on procède comme décrit précédemment jusqu'au jour 7. A ce moment, 100 µl de cellules sont prélevés pour mesurer la proportion de cellules vivantes et le restant est remis en culture avec du milieu frais contenant les produits aux mêmes concentrations. Cette opération est répétée tous les 4 jours.

Data set [1] concerns lignée lymphoblastoïde CEM clone 13. As to the kind of experiment: Cytotoxicity on non-infected CEM clone 13 cells (MTT viability). It counts as cell-based, humaines. The following applies: day 7. The method, then: as §1, with “Dans” for “Le test est réalisé sur la lignée lymphoblastoïde CEM clone 13. Dans”, “Virol.” for “Virol. Meth., 20, 309-321 (1988).”
as §2, §3

Turning to `CN(C)C1C(=O)C(C(N)=O)=C(O)C2(O)C(=O)C3=C(O)c4c(O)cccc4C(C)(O)C3CC12` (stereo not drawn) [Exemple 1, tétracycline], the “Cellules infectées Densité optique” value in the data set on virus HIV (LAV-1-BRU) (0,03 µg/ml) is given as 0,350; in the data set on virus HIV (LAV-1-BRU) (0,08 µg/ml), 0,350; with virus HIV (LAV-1-BRU) (0,25 µg/ml), 0,340; with virus HIV (LAV-1-BRU) (0,74 µg/ml), 0,420; in the data set on virus HIV (LAV-1-BRU) (20 µg/ml) it was 0,400; with virus HIV (LAV-1-BRU) (60 µg/ml) it was 0,1. Moreover, the “Cellules infectées Densité optique” value with virus HIV (LAV-1-BRU) (2,22 µg/ml) is on record as 0,510; in the data set with virus HIV (LAV-1-BRU) (6,67 µg/ml), 0,620. The “Cellules non infectées Densité optique” value in data set [1] (0,03 µg/ml) is recorded as 1,025; in data set [1] (0,08 µg/ml), 1,080; in data set [1] (0,25 µg/ml) it was 1,050; in data set [1] (0,74 µg/ml) it was 1,100; in data set [1] (20 µg/ml), 0,460; in data set [1] (60 µg/ml), 0,1. The results for the “Cellules non infectées Densité optique” value in data set [1] (2,22 µg/ml) and in data set [1] (6,67 µg/ml) were 1,040 and 0,900, respectively.
Consider lymecycline [Exemple 4], for which the “Cellules infectées Densité optique” value with virus HIV (LAV-1-BRU) (0,01 µg/ml) is given as 0,75; with virus HIV (LAV-1-BRU) (0,04 µg/ml), 1,25; with virus HIV (LAV-1-BRU) (0,12 µg/ml) it was 1,21; in the data set with virus HIV (LAV-1-BRU) (0,37 µg/ml) it was 1,20; in the data set on virus HIV (LAV-1-BRU) (10 µg/ml) it was 1,55; in the data set with virus HIV (LAV-1-BRU) (30 µg/ml), 1,05. Moreover, the “Cellules infectées Densité optique” value with virus HIV (LAV-1-BRU) (1,11 µg/ml) was 1,28; with virus HIV (LAV-1-BRU) (3,33 µg/ml) it was 1,40. The “Cellules non infectées Densité optique” value in data set [1] (0,01 µg/ml) is listed as 1,75; in data set [1] (0,04 µg/ml), 1,80; in data set [1] (0,12 µg/ml), 1,90; in data set [1] (0,37 µg/ml) it was 1,75; in data set [1] (10 µg/ml), 1,85; in data set [1] (30 µg/ml), 1,05. Also, the “Cellules non infectées Densité optique” value was 1,80 in data set [1] (1,11 µg/ml) and 1,85 in data set [1] (3,33 µg/ml).
`C=C1c2cccc(O)c2C(O)=C2C(=O)C3(O)C(O)=C(C(N)=O)C(=O)C(N(C)C)C3C(O)C12` (stereo not drawn) [Exemple 3, métacycline]: the “Cellules infectées Densité optique” value is listed as 0,570 with virus HIV (LAV-1-BRU) (0,01 µg/ml); 0,640 with virus HIV (LAV-1-BRU) (0,04 µg/ml); 0,680 in the data set on virus HIV (LAV-1-BRU) (0,12 µg/ml); 0,730 in the data set on virus HIV (LAV-1-BRU) (0,37 µg/ml); 0,770 in the data set with virus HIV (LAV-1-BRU) (10 µg/ml); 0,1 in the data set on virus HIV (LAV-1-BRU) (30 µg/ml). For the same molecule, the entries for the “Cellules infectées Densité optique” value with virus HIV (LAV-1-BRU) (1,11 µg/ml) and with virus HIV (LAV-1-BRU) (3,33 µg/ml) were 0,780 and 1,060, respectively. Moreover, the “Cellules non infectées Densité optique” value in data set [1] (0,01 µg/ml) is listed as 1,100; in data set [1] (0,04 µg/ml) it was 1,380; in data set [1] (0,12 µg/ml), 1,300; in data set [1] (0,37 µg/ml), 1,230; in data set [1] (10 µg/ml) it was 0,960; in data set [1] (30 µg/ml), 0,1. The “Cellules non infectées Densité optique” value in data set [1] (1,11 µg/ml) is given as 1,180; in data set [1] (3,33 µg/ml), 1,320.
